pIC50: −log10 of the molar value.

The text below walks through data of patent publication US9856279B2 (AGIOS PHARMACEUTICALS, INC, priority 2011, dated 2018).

For one experiment, the system named is HT1080 cells. In words: Cellular assay for IDH1m inhibitors: inhibition of 2-HG production (LC-MS, 48 hours) in HT1080 cells. It counts as cell-based. The following applies: Homo sapiens, HT-1080; inhibition of 2-HG production, HT1080 cells; read-out: HT1080 IC50. The method, boiled down: (§1)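 Inhibition of 2-HG production was assessed in cells seeded at 5000/well and exposed to compound for 48 h (final DMSO 0.2%). Supernatant 2-HG was analysed by LC-MS.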

The next experiment relates to U87MG cells. In words: Cellular assay for IDH1m inhibitors: inhibition of 2-HG production (LC-MS, 48 hours) in U87MG cells. Type of experiment: cell-based. The note with it: Homo sapiens, U-87 MG, inhibition of 2-HG production, U87R132H cells; read-out: U87R132H IC50. The method, boiled down:
as §1

The target of another experiment is IDH1 R132H (Homo sapiens, UniProt O75874, R132H). Description: Assay for IDH1 R132H inhibitors (NADPH/aKG, resazurin detection). Type of experiment: biochemical. The note with it: enzyme assay of Example 12; read-out: IDH1R132H IC50. In a few lines:
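Compound added to substrate mix (8 uM NADPH, 2 mM aKG), then enzyme mix (0.2 μg/ml IDH1 R132H); 50 min RT in 20 mM Tris pH 7.5, 150 mM NaCl, 10 mM MgCl2, 0.03% BSA. Resazurin detection mix (30 μM) 5 min RT; resorufin fluorescence Ex544/Em590.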
(Resazurin is reduced to fluorescent resorufin, in cell work by metabolically active cells.)

Chain of IDH1 R132H (O75874 whole entry R132H): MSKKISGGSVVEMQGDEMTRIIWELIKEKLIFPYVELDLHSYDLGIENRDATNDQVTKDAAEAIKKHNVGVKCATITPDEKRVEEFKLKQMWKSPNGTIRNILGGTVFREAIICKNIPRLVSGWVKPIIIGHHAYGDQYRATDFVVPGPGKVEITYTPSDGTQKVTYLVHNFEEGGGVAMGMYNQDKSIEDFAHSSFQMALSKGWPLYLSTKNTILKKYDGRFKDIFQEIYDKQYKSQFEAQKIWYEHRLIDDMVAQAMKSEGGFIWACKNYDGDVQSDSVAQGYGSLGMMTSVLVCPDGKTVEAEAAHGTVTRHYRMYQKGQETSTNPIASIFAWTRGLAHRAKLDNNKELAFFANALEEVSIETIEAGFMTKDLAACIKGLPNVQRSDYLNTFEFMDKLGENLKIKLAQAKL

One may read the pIC50 as the IC50 on a negative log10 scale, so that one unit is a factor of ten. For the molecule `C=Cc1cc(-c2cc(C#N)c(N3CCN(C(=O)COC)[C@H](C(C)C)C3)nc2C2CC2)c2ccncc2n1` [Compound 741, (R)-6-cyclopropyl-2-(3-isopropyl-4-(2-methoxyacetyl)piperazin-1-yl)-5-(2-vinyl-1,7-naphthyridin-4-yl)nicotinonitrile], the pIC50 with HT1080 cells, in the experiment on U87MG cells and on IDH1 R132H was over 6.30 throughout.
Regarding `C=Cc1cc(Nc2cc(C#N)c(N3CCN(C(=O)COC)[C@H](C4CC4)C3)nc2C2CC2)ccn1` [Compound 711, (R)-6-cyclopropyl-2-(3-cyclopropyl-4-(2-methoxyacetyl)piperazin-1-yl)-5-((2-vinylpyridin-4-yl)amino)nicotinonitrile], the pIC50 with HT1080 cells, with U87MG cells and on IDH1 R132H was over 6.30 each time.
Consider `COCCC(=O)N1CCN(c2nc(C3CC3)c(-c3ccncc3)c(C)c2C#N)C[C@H]1C` [Compound 268, (R)-2-cyclopropyl-6-(4-(3-methoxypropanoyl)-3-methylpiperazin-1-yl)-4-methyl-3,4′-bipyridine-5-carbonitrile], for which the results for the pIC50 in the experiment on HT1080 cells, in the experiment on U87MG cells and on IDH1 R132H were 5.00 to 6.00, 5.00 to 6.00 and 6.00 to 6.30, respectively.
For the molecule `C=Cc1ccnc(Nc2cc(C#N)c(N3CCN(C(=O)CCC4CCO4)[C@H](C4CC4)C3)nc2C2CC2)c1` (stereo partly drawn) [Compound 812, 6-cyclopropyl-2-((3R)-3-cyclopropyl-4-(3-(oxetan-2-yl)propanoyl)piperazin-1-yl)-5-((4-vinylpyridin-2-yl)amino)nicotinonitrile], the pIC50 with HT1080 cells, with U87MG cells and at IDH1 R132H was over 6.30 each time.
In the case of `C=Cc1cc(-c2cc(C#N)c(N3CCN(C(=O)CCOC)[C@H](C(C)C)C3)nc2C2CC2)c2cccnc2n1` [Compound 626, (R)-6-cyclopropyl-2-(3-isopropyl-4-(3-methoxypropanoyl)piperazin-1-yl)-5-(2-vinyl-1,8-naphthyridin-4-yl)nicotinonitrile], the pIC50 in the experiment on HT1080 cells, with U87MG cells and on IDH1 R132H was over 6.30 throughout.
`C=Cc1cc(-c2c(C3CC3)nc(N3CCN(C(=O)CC4CCCC4)[C@H](C4CC4)C3)c(C#N)c2C)ccn1` [Compound 782, (R)-6-(4-(2-cyclopentylacetyl)-3-cyclopropylpiperazin-1-yl)-2-cyclopropyl-4-methyl-2′-vinyl-3,4′-bipyridine-5-carbonitrile]: the pIC50 with HT1080 cells, with U87MG cells and on IDH1 R132H was over 6.30 throughout.
Turning to `COCCC(=O)N1CCN(c2nc(C3CC3)c(-c3ccccc3C#N)cc2C#N)C[C@H]1C(C)C` [Compound 274, (R)-5-(2-cyanophenyl)-6-cyclopropyl-2-(3-isopropyl-4-(3-methoxypropanoyl)piperazin-1-yl)nicotinonitrile], the pIC50 in the experiment on HT1080 cells is 5.00 to 6.00; in the experiment on U87MG cells, 5.00 to 6.00; at IDH1 R132H, 6.00 to 6.30.
As to `C/C=C/C(=O)Nc1cccc(-c2cc(C#N)c(N3CCN(C(=O)CCOC)[C@H](C)C3)nc2C2CC2)c1` [Compound 415, (R,E)-N-(3-(5-cyano-2-cyclopropyl-6-(4-(3-methoxypropanoyl)-3-methylpiperazin-1-yl)pyridin-3-yl)phenyl)but-2-enamide], the values for the pIC50 with HT1080 cells, with U87MG cells and on IDH1 R132H were 5.00 to 6.00, 5.00 to 6.00 and over 6.30, respectively.
Consider `COCCC(=O)N1CCN(c2nc(C3CC3)c(-c3cccc4c[n+]([O-])ccc34)cc2C#N)C[C@H]1C` [Compound 420, (R)-5-(5-cyano-2-cyclopropyl-6-(4-(3-methoxypropanoyl)-3-methylpiperazin-1-yl)pyridin-3-yl)isoquinoline 2-oxide], for which the pIC50 with HT1080 cells is 5.00 to 6.00; in the experiment with U87MG cells, 5.00 to 6.00; at IDH1 R132H, over 6.30.
`C#Cc1ccnc(Nc2cc(C#N)c(N3CCN(C(=O)COC)[C@H](C4CC4)C3)nc2C2CC2)c1` [Compound 750, (R)-6-cyclopropyl-2-(3-cyclopropyl-4-(2-methoxyacetyl)piperazin-1-yl)-5-(4-ethynylpyridin-2-ylamino)nicotinonitrile]: the pIC50 with HT1080 cells, in the experiment with U87MG cells and on IDH1 R132H was over 6.30 in each case.
Regarding `N#Cc1cc(Nc2ccnc3ccccc23)c(C2CC2)nc1N1CCN(C(=O)C2CC2)[C@H](C2CC2)C1` [Compound 528, (R)-2-(4-(cyclopropanecarbonyl)-3-cyclopropylpiperazin-1-yl)-6-cyclopropyl-5-(quinolin-4-ylamino)nicotinonitrile], the pIC50 in the experiment with HT1080 cells is 6.00 to 6.30; with U87MG cells, over 6.30; at IDH1 R132H it was over 6.30.
In the case of `COCCC(=O)N1CCN(c2nc(C3CC3)c(-c3ccc(S(N)(=O)=O)cc3)c(C)c2C#N)C[C@H]1C` [Compound 393, (R)-4-{5-cyano-2-cyclopropyl-6-[4-(3-methoxy-propionyl)-3-methyl-piperazin-1-yl]-4-methyl-pyridin-3-yl}-benzenesulfonamide], the values for the pIC50 with HT1080 cells, in the experiment with U87MG cells and on IDH1 R132H were 5.00 to 6.00, 6.00 to 6.30 and over 6.30, respectively.
In the same order, the values of `C=Cc1cc(-c2cc(C#N)c(N3CCN(C(=O)c4ccoc4)[C@H](C4CC4)C3)nc2C2CC2)ccn1` [Compound 546, (R)-2-cyclopropyl-6-(3-cyclopropyl-4-(furan-3-carbonyl)piperazin-1-yl)-2′-vinyl-3,4′-bipyridine-5-carbonitrile] are over 6.30, over 6.30 and over 6.30.
For `C=Cc1cc(-c2cc(C#N)c(N3CCN(C(=O)CCO)[C@H](C4CC4)C3)nc2C2CC2)cnn1` [Compound 686, (R)-6-cyclopropyl-2-(3-cyclopropyl-4-(3-hydroxypropanoyl)piperazin-1-yl)-5-(6-vinylpyridazin-4-yl)nicotinonitrile] the same measures were over 6.30, over 6.30 and over 6.30.
For `C/C=C/C(=O)Nc1cccc(COc2cc(C#N)c(N3CCN(C(=O)CCOC)[C@H](C)C3)nc2C2CC2)c1` [Compound 400, (R,E)-N-(3-((5-cyano-2-cyclopropyl-6-(4-(3-methoxypropanoyl)-3-methylpiperazin-1-yl)pyridin-3-yloxy)methyl)phenyl)but-2-enamide] the same measures were 5.00 to 6.00, 5.00 to 6.00 and 6.00 to 6.30.
With `C=Cc1cc(-c2cc(C#N)c(N3CCN(C(=O)CCO)[C@H](C)C3)nc2C2CC2)c2ccncc2n1` [Compound 609, (R)-6-cyclopropyl-2-(4-(3-hydroxypropanoyl)-3-methylpiperazin-1-yl)-5-(2-vinyl-1,7-naphthyridin-4-yl)nicotinonitrile], the pIC50 with HT1080 cells, in the experiment on U87MG cells and at IDH1 R132H was over 6.30 in each case.
As to `C=Cc1ccc2ccc(-c3cc(C#N)c(N4CCN(C(=O)C5CC5)[C@H](C5CC5)C4)nc3C3CC3)cc2n1` [Compound 709, (R)-2-(4-(cyclopropanecarbonyl)-3-cyclopropylpiperazin-1-yl)-6-cyclopropyl-5-(2-vinylquinolin-7-yl) nicotinonitrile], the pIC50 in the experiment on HT1080 cells, with U87MG cells and at IDH1 R132H was over 6.30 in each case.
